pIC50: −log10 of the molar value. Like-named read-outs stand apart in the source and are kept apart here.
Tests used:
[1] = system: Zika virus-infected BHK cells; assay: Anti-Zika (ZIKV) virus activity test, CellTiter-Glo cell viability; format: cell-based, Zika virus SZ-SMGC-01 strain; settings: 100 TCID50 virus per well, 9 days at 37° C.
Method: (1) Anti-Zika (ZIKV) Virus Activity Test
Test object: Zika virus-infected BHK cells
Testing Method: • (1) BBHK cells (preserved by the Academy of Military Medical Sciences) were inoculated into a 96-well plate at a concentration of 5×10^3 cells/well, and the cell culture medium was DMEM medium (purchased from Gibco Company, Cat. No. 11995065) containing 10% FBS (purchased from Gibco, Cat. No. 16000044), the plate was placed in a CO2 incubator, and incubated at 37° C. for 24 hours. • (2) The original medium in the 96-well plate was discarded, 100 μL of DMEM medium (purchased from Gibco, Cat. No. 11995065) containing 2% FBS (purchased from Gibco, Cat. No. 16000044) was taken and added into the cells. Then, the stock solution of the compound to be tested was serially diluted with the above-mentioned DMEM medium to 800 μM, 266.67 μM, 88.89 μM, 29.63 μM, 9.88 μM, 3.29 μM, 1.10 μM, 0.37 μM, and 50 μL was added to the cell culture plate. The stock solution of positive compound NITD008 (purchased from MCE Company, Cat. No. HY-12957) was serially diluted with the above DMEM medium to 80 μM, 26.67 μM, 8.89 μM, 2.96 μM, 0.99 μM, 0.33 μM, 0.11 μM, 0.04 μM, and 50 μL was added to the cell culture plate. Finally, 50 μL of Zika virus SZ-SMGC-01 strain (preserved by the Academy of Military Medical Sciences) diluted in DMEM medium containing 2% FBS was added to the cells, each well contained 100 TCID50 of the virus. The final concentration of the compound to be tested was 0.25 times the pretreatment concentration, that was, the initial concentration was 200 μM, and dilution was carried out by 3-fold series, so that the final concentrations of the compound to be tested were: 200 μM, 66.67 μM, 22.22 μM, 7.41 μM, 2.47 μM, 0.82 μM, 0.27 μM, 0.09 μM. The final concentrations of the positive compound were: 20 μM, 6.67 μM, 2.22 μM, 0.74 μM, 0.25 μM, 0.082 μM, 0.027 μM, 0.009 μM. Negative control (to the cell well, DMSO and culture medium were added, without drug) and positive control (to the cell well, DMSO, culture medium and virus were added, without drug) were set. The cell culture plates were incubated at 37° C. for 9 days. • (3) The Buffer and the substrate of CellTiter-Glo® Chemiluminescent Cell Viability Assay (purchased from Promega, Cat. No. G7573) were mixed in the dark to prepare a working solution. The working solution was mixed with PBS (purchased from Gibco, Cat. No. 10010049) at a ratio of 4:6. After the medium in the cell culture plate was discarded, 100 μl of detection reagent was added to each well, and the 96-well plate was shaken for 5 min with an orbital shaker to induce cell lysis. After stabilizing the signal in the dark for 2 minutes, a microplate reader (purchased from Molecular Devices, model SpectraMax M5) was used to measure the chemiluminescent units, the plate reading program was the preset program of CellTiter-Glo, and the cell viability was calculated:
Cell viability (%)=(A(drug treatment group)−A(positive control))/(A(negative control)−A(positive control))×100%
(§1) wherein, A represented the reading of the microplate reader.
(§2) Result evaluation: origin8.0 software was used to carry out the S-type curve fitting on the inhibition rate-concentration, and the IC50 value of the compound to be tested was calculated.

[2] = system: Rhinovirus (HRV-1059)-infected H1 Hela cells; assay: Anti-rhinovirus (HRV-1059) activity test, CellTiter-Glo cell viability; format: cell-based, rhinovirus HRV-1059 strain; settings: 100 TCID50 virus per well, 6 days at 37° C., read-out: IC50 Anti-HRV (H1Hela)
Description: (2) Anti-Rhinovirus (HRV-1059) Activity Test
Test object: Rhinovirus (HRV-1059)-infected H1 Hela cells
Testing method: • (1) H1 Hela cells (purchased from the National Experimental Cell Resource Sharing Platform, Cat. No. 3111C0001CCC000344) were inoculated into a 96-well plate at a concentration of 1.5×10^4 cells/well, and the cell culture medium was DMEM medium (purchased from Gibco, Cat. No. 11995065) containing 10% FBS (purchased from Gibco, Cat. No. 16000044), the plate was placed in a CO2 incubator and incubated at 37° C. for 24 hours. • (2) The original medium in the 96-well plate was discarded, 100 μL of DMEM medium (purchased from Gibco, Cat. No. 11995065) containing 2% FBS (purchased from Gibco, Cat. No. 16000044) was taken and added into the cells. Then the stock solution of the compound to be tested was serially diluted with the above DMEM medium to 800 μM, 266.67 μM, 88.89 μM, 29.63 μM, 9.88 μM, 3.29 μM, 1.10 μM, 0.37 μM, 0.12 μM, 0.04 μM, and 50 μL was added to the cell culture plate. The stock solution of positive compound NITD008 (purchased from MCE Company, Cat. No. HY-12957) was serially diluted with the above DMEM medium to 80 μM, 26.67 μM, 8.89 μM, 2.96 μM, 0.99 μM, 0.33 μM, 0.11 μM, 0.04 μM, 0.012 μM, 0.004 μM, 50 μL was added to the cell culture plate. Finally, 50 μL of the rhinovirus HRV-1059 strain (purchased from ATCC, Cat. No. VR-482) diluted with DMEM medium containing 2% FBS was added to the cells, the amount of virus contained in each well was 100 TCID50. The final concentration of the compound to be tested was 0.25 times of the pretreatment concentration, that was, the initial concentration was 200 μM, the dilution was carried out by 3-fold series, the final concentrations of the compound to be tested were: 200 μM, 66.67 μM, 22.22 μM, 7.41 μM, 2.47 μM, 0.82 μM, 0.27 μM, 0.09 μM, 0.03 μM, 0.01 μM. The final concentrations of the positive compound were: 20 μM, 6.67 μM, 2.22 μM, 0.74 μM, 0.25 μM, 0.082 μM, 0.027 μM, 0.009 μM, 0.003 μM, 0.001 μM. Negative control (to the cell well, DMSO and medium were added, without drug) and positive control (to the cell well, DMSO, medium and virus were added, without drug) were set. The cell culture plates were incubated at 37° C. for 6 days. • (3) The Buffer and the substrate of CellTiter-Glo® Chemiluminescent Cell Viability Assay (purchased from Promega, Cat. No. G7573) was mixed in the dark to obtain a working solution. The working solution was mixed with PBS (purchased from Gibco, Cat. No. 10010049) at a ratio of 4:6. After the medium in the cell culture plate was discarded, 100 μl of detection reagent was added to each well, and the 96-well plate was shaken for 5 min with an orbital shaker to induce cell lysis. After stabilizing the signal in the dark for 2 minutes, a microplate reader (purchased from Molecular Devices, model SpectraMax M5) was used to measure the chemiluminescent units, the plate reading program was the preset program of CellTiter-Glo, and the cell viability was calculated:
Cell viability (%)=(A(drug treatment group)−A(positive control))/(A(negative control)−A(positive control))×[…]
as §1, §2

[3] = Enterovirus, HRV1059, H1-HeLa, 144 h

Row | pIC50 [2] | pIC50 [2, 3] | SMILES | pIC50 ([1]; Zika virus, BHK, 216 h) | pIC50 [1]
1 | 7.30 | – | C#C[C@@]1(O)[C@H](O)[C@@H](CO)O[C@H]1n1ccc2c(N)ncnc21 [NITD008, reference compound] | – | 6.00
2 | – | 4.61 | CC1(C)OC[C@H](C2O[C@](N=[N+]=[N-])(C(=O)O)C(N=[N+]=[N-])C(O)[C@H]2O)O1 (stereo partly shown) [Compound 19] | < 3.70 | –
3 | – | 4.88 | CC(=O)N[C@@H]1C(OC(=O)c2ccccc2)C(N=[N+]=[N-])[C@@](N=[N+]=[N-])(C(=O)O)OC1[C@H](OC(=O)c1ccccc1)[C@@H](COC(=O)c1ccccc1)OC(=O)c1ccccc1 (stereo partly shown) [Compound 13] | 4.70 | –
4 | < 3.70 | – | COC(=O)[C@]1(N=[N+]=[N-])OC([C@H](OC(=O)c2ccccc2)[C@@H](COC(=O)c2ccccc2)OC(=O)c2ccccc2)[C@H](NC(C)=O)C(OC(=O)c2ccccc2)C1N=[N+]=[N-] (stereo partly shown) [Compound 6d] | – | 4.99
5 | – | < 3.70 | COC(=O)[C@@]1(N=[N+]=[N-])OC([C@H](OC(=O)c2ccccc2)[C@@H](COC(=O)c2ccccc2)OC(=O)c2ccccc2)[C@H](NC(C)=O)C(OC(=O)c2ccccc2)C1N (stereo partly shown) [Compound 14] | 4.84 | –
6 | – | < 3.70 | COC(=O)[C@]1(N=[N+]=[N-])OC([C@H](OC(=O)c2ccccc2)[C@@H](COC(=O)c2ccccc2)OC(=O)c2ccccc2)[C@H](NC(C)=O)C(OC(=O)c2ccccc2)C1N=[N+]=[N-] (stereo partly shown) [Compound 6b] | 4.97 | –
7 | – | < 3.70 | COC(=O)[C@@]1(N=[N+]=[N-])OC([C@H](OC(=O)c2ccccc2)[C@@H](COC(=O)c2ccccc2)OC(=O)c2ccccc2)[C@H](NC(C)=O)C(OC(=O)c2ccccc2)C1N=[N+]=[N-] (stereo partly shown) [Compound 6a] | 4.66 | –
8 | < 3.70 | – | COC(=O)[C@@]1(N=[N+]=[N-])OC([C@H](OC(=O)c2ccccc2)[C@@H](COC(=O)c2ccccc2)OC(=O)c2ccccc2)[C@H](NC(C)=O)C(OC(=O)c2ccccc2)C1N=[N+]=[N-] (stereo partly shown) [Compound 6c] | – | 4.96
9 | – | 4.97 | COC(=O)[C@]1(N=[N+]=[N-])OC([C@@H](COC(C)=O)OC(C)=O)[C@H](OC(C)=O)C(OC(C)=O)C1N=[N+]=[N-] (stereo partly shown) [Compound 10a] | < 3.70 | –

Row | SMILES | pIC50 [2] | pIC50 [2, 3] | pIC50 ([1]; Zika virus, BHK, 216 h) | pIC50 [1]
10 | COC(=O)[C@@]1(N=[N+]=[N-])OC([C@H](O[Si](C)(C)C(C)(C)C)[C@H]2COC(C)(C)O2)[C@H](NC(C)=O)C(O[Si](C)(C)C(C)(C)C)C1N=[N+]=[N-] (single isomer, unassigned) [Compound 4a] | 5.34 | – | 5.85 | –
11 | COC(=O)[C@@]1(N=[N+]=[N-])OC([C@H](O[Si](C)(C)C(C)(C)C)[C@H]2COC(C)(C)O2)[C@H](NC(C)=O)C(O[Si](C)(C)C(C)(C)C)C1N=[N+]=[N-] (single isomer, unassigned) [Compound 4b] | 4.72 | – | – | 5.60

Reference: patent US20230271993A1, “3-DEOXY-2-KETOALDONIC ACID NITROGEN-CONTAINING DERIVATIVE, PREPARATION METHOD THEREOF, AND USE THEREOF” (SICHUAN UNIVERSITY, priority 2020, published 2023)
